Data: US20110105397A1, “METHOD FOR TREATING HEART FAILURE WITH STRESSCOPIN-LIKE PEPTIDES” (priority 2009, published 2011)
Where two headings read alike, the source gives them in different places.

Columns and labels:
[1] = Human pharmacokinetics, healthy subjects, 7.5-hour continuous ascending dose IV infusion; type: in vivo; conditions: for half-life / clearance / Cmax / Tmax / AUC(0-inf): human, in vivo
Experimental: In healthy subjects following a 7.5-hour continuous ascending dose IV infusion of h-SCP (SEQ ID NO:1) noncompartmental pharmacokinetic analyses were performed to determine plasma concentrations of h-SCP (SEQ ID NO:1). Plasma h-SCP (SEQ ID NO:1) reached the steady state shortly after initiating the IV infusion (FIG. 16A). […] Within 30 minutes, plasma h-SCP (SEQ ID NO:1) was reduced to ≦20% of the h-SCP (SEQ ID NO:1) level at the end of infusion. […] However, the additional compartment's contribution to the overall exposure and accumulation of h-SCP (SEQ ID NO:1) is likely marginal as indicated by the effective half-lives.

[2] = system: subjects with heart failure; assay: Human hemodynamics (impedance cardiography), subjects with stable heart failure, 7.5-hour ascending dose IV infusion; type: in vivo; conditions: for Heart Rate CFB / Heart Rate Percent CFB: placebo-subtracted; for Cardiac Index CFB / Cardiac Index Percent CFB / Cardiac Output CFB / Cardiac Output Percent CFB / Diastolic Blood Pressure CFB / Diastolic Blood Pressure Percent CFB / Stroke Volume CFB / Stroke Volume Percent CFB / Systolic Blood Pressure CFB / Systolic Blood Pressure Percent CFB: post hoc analysis
Experimental: Efficacy was based on the pharmacodynamic evaluation of hemodynamics, which was monitored using the noninvasive technique of impedance cardiography. Heart rate values were collected by impedance cardiography measurements. It was noted that the heart rate of subjects receiving placebo were elevated on the day of their infusions, at baseline before the infusion, and for the first 3 to 4 hours after the infusions were started (FIG. 17). Based on this observation, it appeared that there was a potential effect of period on the observed heart rate.
A post hoc graphical analysis of the hemodynamic data was done to adjust for the elevated baseline values seen just before onset of the infusion, to obtain the best estimate of each hemodynamic parameter, and to correct for the effect of period. A post hoc graphic presentation was prepared from the complete (high frequency) dataset. This dataset contains the raw data that were further processed by the vendor (ie, CardioDynamics) and reported only at specific time points.
In this post hoc analysis an extended baseline was used for each value that included all values recorded before initiation of the infusion. Then an average value for each parameter was obtained from the last 30 minutes of each 2.5 hour infusion and was used as the effect in that period of the infused dose. Each value was modified for the effect of period of infusion by subtracting the mean change from baseline seen in placebo subjects dosed in that same period (placebo subtraction). The dose effect was estimated by averaging the values from all subjects who received the same dose after the placebo subtraction.
As may have occurred in healthy subjects, subjects with stable heart failure may have experienced anxiety before the start of the infusion that contributed to this increase in baseline heart rate values.

[3] = healthy subjects, infusion rate 9/18/36 ng/kg/min, mean, N = 5
[4] = healthy subjects, infusion rate 18/54/72 ng/kg/min, mean, N = 3
[5] = healthy subjects, infusion rate 36/72/144 ng/kg/min, N = 1
[6] = healthy subjects, infusion rate 54/72/108 ng/kg/min, mean, N = 2

## H-TKFTLSLDVPTNIMNLLFNIAKAKNLRAQAAANAHLMAQI-NH2 [SEQ ID NO: 1, TKFTLSLDVPTNIMNLLFNIAKAKNLRAQAAANAHLMAQI-NH2]
[1]; dose = CL × Cpss / weight, 70 kg
  human equivalent dose to achieve Cpss of 620 pg/mL: 4.4 ng/kg/min
[1]; human starting dose of 0.1 ng/kg/min, pharmacokinetic-based approach
  expected steady-state plasma concentration (Cpss): 8.6 pg/mL
[1]; healthy subjects, across dose groups, read-out: Mean effective half-life
  half-life: 1.54 to 14.2 h
[1]; healthy subjects, across dose groups, read-out: Mean systemic clearance
  clearance: 4.5 to 7 mL/min/kg
[1]; healthy subjects, across dose groups, read-out: Mean terminal half-life
  half-life: 2.13 to 28.5 h
[1]; healthy subjects, infusion rate 0.1/0.3/1 ng/kg/min, mean, N = 5
  Cmax: 0.248 ng/mL
[1]; healthy subjects, infusion rate 0.1/0.3/1 ng/kg/min, median, N = 5
  Tmax: 7.47 h
[1]; healthy subjects, infusion rate 1/3/9 ng/kg/min, mean, N = 4
  AUC(0-inf): 7.41 ng·h/mL
[1]; healthy subjects, infusion rate 1/3/9 ng/kg/min, mean, N = 4, read-out: CL (converted)
  clearance: 4.67 mL/min/kg
[1]; healthy subjects, infusion rate 1/3/9 ng/kg/min, median, N = 5
  Tmax: 7 h
[1]; [3]
  AUC(0-inf): 28.9 ng·h/mL
  Cmax: 7.26 ng/mL
[1]; healthy subjects, infusion rate 9/18/36 ng/kg/min, mean, N = 5, read-out: CL (converted)
  clearance: 5.5 mL/min/kg
[1]; healthy subjects, infusion rate 9/18/36 ng/kg/min, median, N = 5
  Tmax: 7 h
[1]; healthy subjects, infusion rate 18/36/72 ng/kg/min, N = 1
  AUC(0-inf): 68.7 ng·h/mL
[1]; healthy subjects, infusion rate 18/36/72 ng/kg/min, N = 1, read-out: CL (converted)
  clearance: 4.67 mL/min/kg
[1]; healthy subjects, infusion rate 18/36/72 ng/kg/min, mean, N = 2
  Cmax: 14.1 ng/mL
[1]; healthy subjects, infusion rate 18/36/72 ng/kg/min, median, N = 2
  Tmax: 6.46 h
[1]; [4]
  AUC(0-inf): 55.9 ng·h/mL
  Cmax: 9.01 ng/mL
[1]; healthy subjects, infusion rate 18/54/72 ng/kg/min, mean, N = 3, read-out: CL (converted)
  clearance: 6.83 mL/min/kg
[1]; healthy subjects, infusion rate 18/54/72 ng/kg/min, median, N = 3
  Tmax: 5.5 h
[1]; [5]
  AUC(0-inf): 138 ng·h/mL
  Cmax: 29.1 ng/mL
  Tmax: 7.42 h
[1]; healthy subjects, infusion rate 36/72/144 ng/kg/min, N = 1, read-out: CL (converted)
  clearance: 4.5 mL/min/kg
[1]; [6]
  AUC(0-inf): 95.5 ng·h/mL
  Cmax: 14.6 ng/mL
[1]; healthy subjects, infusion rate 54/72/108 ng/kg/min, mean, N = 2, read-out: CL (converted)
  clearance: 7 mL/min/kg
[1]; healthy subjects, infusion rate 54/72/108 ng/kg/min, median, N = 2
  Tmax: 6.99 h
[1]; iv, healthy humans, intravenous infusion, for a 70-kg person, read-out: clearance (CL) (converted)
  clearance: ~500 mL/min
[2]; highest dose of 54 ng/kg/min
  increase in heart rate: ~10 bpm
[2]; infusion rate 0.3 ng/kg/min
  Heart Rate CFB: 1.5 bpm
  Heart Rate Percent CFB: 3.0%
  Cardiac Index CFB: 0.3 L/min/m^2
  Cardiac Index Percent CFB: 13.9%
  Cardiac Output CFB: 0.7 L/min
  Cardiac Output Percent CFB: 14.2%
  Diastolic Blood Pressure CFB: −8.6 mm Hg
  Diastolic Blood Pressure Percent CFB: −12.6%
  Stroke Volume CFB: 7.6 mL
  Stroke Volume Percent CFB: 9.5%
  Systolic Blood Pressure CFB: −18.2 mm Hg
  Systolic Blood Pressure Percent CFB: −15.8%
[2]; infusion rate 1 ng/kg/min
  Heart Rate CFB: −0.4 bpm
  Heart Rate Percent CFB: 0.2%
  Cardiac Index CFB: 0.2 L/min/m^2
  Cardiac Index Percent CFB: 10.1%
  Cardiac Output CFB: 0.5 L/min
  Cardiac Output Percent CFB: 10.2%
  Diastolic Blood Pressure CFB: −6.1 mm Hg
  Diastolic Blood Pressure Percent CFB: −9.1%
  Stroke Volume CFB: 6.6 mL
  Stroke Volume Percent CFB: 9.1%
  Systolic Blood Pressure CFB: −4.9 mm Hg
  Systolic Blood Pressure Percent CFB: −4.7%
[2]; infusion rate 3 ng/kg/min
  Heart Rate CFB: −1.3 bpm
  Heart Rate Percent CFB: −0.9%
  Cardiac Index CFB: 0.1 L/min/m^2
  Cardiac Index Percent CFB: 6.9%
  Cardiac Output CFB: 0.3 L/min
  Cardiac Output Percent CFB: 7.0%
  Diastolic Blood Pressure CFB: −8.6 mm Hg
  Diastolic Blood Pressure Percent CFB: −13.0%
  Stroke Volume CFB: 4.8 mL
  Stroke Volume Percent CFB: 7.3%
  Systolic Blood Pressure CFB: −9.5 mm Hg
  Systolic Blood Pressure Percent CFB: −9.2%
[2]; infusion rate 9 ng/kg/min
  Heart Rate CFB: 0.2 bpm
  Heart Rate Percent CFB: 1.5%
  Cardiac Index CFB: 0.2 L/min/m^2
  Cardiac Index Percent CFB: 9.1%
  Cardiac Output CFB: 0.5 L/min
  Cardiac Output Percent CFB: 9.2%
  Diastolic Blood Pressure CFB: −8.6 mm Hg
  Diastolic Blood Pressure Percent CFB: −11.9%
  Stroke Volume CFB: 5.9 mL
  Stroke Volume Percent CFB: 7.6%
  Systolic Blood Pressure CFB: −10.6 mm Hg
  Systolic Blood Pressure Percent CFB: −9.4%
[2]; infusion rate 18 ng/kg/min
  Heart Rate CFB: 0.8 bpm
  Heart Rate Percent CFB: 2.5%
  Cardiac Index CFB: 0.4 L/min/m^2
  Cardiac Index Percent CFB: 14.5%
  Cardiac Output CFB: 0.8 L/min
  Cardiac Output Percent CFB: 15.5%
  Diastolic Blood Pressure CFB: −7.6 mm Hg
  Diastolic Blood Pressure Percent CFB: −11.4%
  Stroke Volume CFB: 9.3 mL
  Stroke Volume Percent CFB: 12.9%
  Systolic Blood Pressure CFB: −8.8 mm Hg
  Systolic Blood Pressure Percent CFB: −8.7%
[2]; infusion rate 36 ng/kg/min
  Heart Rate CFB: 3.6 bpm
  Heart Rate Percent CFB: 6.3%
  Cardiac Index CFB: 0.3 L/min/m^2
  Cardiac Index Percent CFB: 12.4%
  Cardiac Output CFB: 0.7 L/min
  Cardiac Output Percent CFB: 12.4%
  Diastolic Blood Pressure CFB: −12.5 mm Hg
  Diastolic Blood Pressure Percent CFB: −18.5%
  Stroke Volume CFB: 4.2 mL
  Stroke Volume Percent CFB: 6.0%
  Systolic Blood Pressure CFB: −16.4 mm Hg
  Systolic Blood Pressure Percent CFB: −14.9%
[2]; infusion rate 45 ng/kg/min
  Heart Rate CFB: 3.8 bpm
  Heart Rate Percent CFB: 7.5%
  Cardiac Index CFB: 0.3 L/min/m^2
  Cardiac Index Percent CFB: 12.6%
  Cardiac Output CFB: 0.7 L/min
  Cardiac Output Percent CFB: 13.3%
  Diastolic Blood Pressure CFB: −12.6 mm Hg
  Diastolic Blood Pressure Percent CFB: −19.0%
  Stroke Volume CFB: 3.3 mL
  Stroke Volume Percent CFB: 5.4%
  Systolic Blood Pressure CFB: −12.0 mm Hg
  Systolic Blood Pressure Percent CFB: −11.7%
[2]; infusion rate 54 ng/kg/min
  Heart Rate CFB: 7.0 bpm
  Heart Rate Percent CFB: 11.5%
  Cardiac Index CFB: 0.2 L/min/m^2
  Cardiac Index Percent CFB: 7.5%
  Cardiac Output CFB: 0.4 L/min
  Cardiac Output Percent CFB: 11.5%
  Diastolic Blood Pressure CFB: −14.4 mm Hg
  Diastolic Blood Pressure Percent CFB: −23.9%
  Stroke Volume CFB: -2.5 mL
  Stroke Volume Percent CFB: 0.5%
  Systolic Blood Pressure CFB: −18.8 mm Hg
  Systolic Blood Pressure Percent CFB: −21.4%
